Measured values reported in patent EP4603105A1, “PHARMACEUTICAL COMPOSITION CONTAINING CYCLIC COMPOUND HAVING SELECTIVE KRAS INHIBITORY EFFECT AGAINST HRAS AND NRAS” (CHUGAI SEIYAKU KABUSHIKI KAISHA, priority 2022, dated 2024).
*1 amine or outer side, *2 acyl side, *3 side chain or, on linkers, in order; H or OH if unused. Where a SMILES comes first, the peptide text is derived from it. Bridges are numbered along the chain shown (N, C = ends). [ ]: non-standard residue; d: D form. The star is where a group is joined. hPhe(3-Cl-4-CF3) = N[C@@H](CCc1ccc(C(F)(F)F)c(Cl)c1)C(=O)O; NPrPhe(4-CF3) = CCCN[C@@H](Cc1ccc(C(F)(F)F)cc1)C(=O)O; X27 = COCCCN([C@@H](Cc1ccc(C)cc1)C(=O)[*:2])[*:1]; NMeGly(cPent) = CN[C@H](C(=O)O)C1CCCC1; Hyp = O=C(O)[C@@H]1C[C@@H](O)CN1; NMeD = CN[C@@H](CC(=O)O)C(=O)O; NMeL = CN[C@@H](CC(C)C)C(=O)O; Morpholide = C1CN(*)CCO1; Ac5c = NC1(C(=O)O)CCCC1; Sar = CNCC(=O)O

Key:
HRAS wild-type protein = HRAS wild-type protein (Homo sapiens, UniProt P01112); assay: Binding to HRAS by surface plasmon resonance (SPR), KD and KD ratio to KRAS
In short: (§1)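 Biotinylated GDP-bound RAS was captured at about 100–300 RU. Running buffer: HBS pH 7.4, 10 mM MgCl2, 10 µM GDP, 1 mM DTT, 0.01% Tween 20, 4% DMSO.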

[1] = biological target: GDP-bound NRAS wild-type protein (Homo sapiens, UniProt P01111); assay: Binding to NRAS by surface plasmon resonance (SPR), KD and KD ratio to KRAS
In short: as §1

[2] = test system: human lung cancer strain NCI-H441; assay type: cell-based
In short: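 Step one: dispense the test compound in serial DMSO dilutions. Step three: add the reagent and measure […].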

[3] = ratio of KD for HRAS wild-type protein to KD for KRAS
[4] = ratio of KD for GDP-bound NRAS wild-type protein to KD for KRAS
[5] = ratio of the KD value with respect to HRAS wild-type protein to the KD value with respect to KRAS
[6] = ratio of the KD value with respect to GDP-bound NRAS wild-type protein to the KD value with respect to KRAS

Sequence of GDP-bound NRAS wild-type protein (P01111 whole entry): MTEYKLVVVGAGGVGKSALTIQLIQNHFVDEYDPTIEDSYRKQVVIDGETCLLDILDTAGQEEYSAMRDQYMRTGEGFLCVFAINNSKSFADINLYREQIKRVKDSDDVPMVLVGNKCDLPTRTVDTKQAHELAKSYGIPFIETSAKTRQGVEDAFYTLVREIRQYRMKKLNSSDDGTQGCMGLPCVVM
Sequence of HRAS wild-type protein (P01112 whole entry): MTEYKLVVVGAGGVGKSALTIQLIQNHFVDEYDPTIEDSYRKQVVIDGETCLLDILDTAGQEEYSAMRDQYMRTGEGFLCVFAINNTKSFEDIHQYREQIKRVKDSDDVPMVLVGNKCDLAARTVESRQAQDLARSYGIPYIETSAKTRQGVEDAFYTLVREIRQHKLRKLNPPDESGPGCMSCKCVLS

IC50 [2] [nM] | SMILES | HRAS /KRAS (HRAS wild-type protein; [3]) | NRAS /KRAS [1, 4] | HRAS /KRAS (HRAS wild-type protein; [5]) | NRAS /KRAS [1, 6] | HRAS /KRAS (HRAS wild-type protein; ratio of KD value for HRAS wild-type protein to KD value for KRAS (SPR)) | NRAS /KRAS ([1]; ratio of KD value for GDP-bound NRAS wild-type protein to KD value for KRAS (SPR))
7.6 | CCO[C@@H]1C[C@H]2C(=O)NC3(CC(C)(C)C3)C(=O)N(C)[C@@H](C3CCCC3)C(=O)N(C)[C@H](C(=O)N(C)CC)CC(=O)N(C)[C@@H](CC)C(=O)N[C@@H]([C@@H](C)CC)C(=O)N(C)CC(=O)N(C)[C@H]3C/C=C\CCN(C3=O)[C@@H](Cc3ccc(C(F)(F)F)cc3)C(=O)N(C)CC(=O)N[C@@H](CCc3ccc(C(F)(F)F)c(Cl)c3)C(=O)N2C1 [PP2823] | A (a compound having 10 or more and less than 20 is denoted as A) | A (a compound having 10 or more and less than 20 is denoted as A) | – | – | – | –
8.3 | CC[C@H](C)[C@@H]1NC(=O)[C@H](CC(C)C)N(C)C(=O)C[C@@H](C(=O)N2CCOCC2)N(C)C(=O)[C@H](C2CCCC2)N(C)C(=O)C2(CCCC2)NC(=O)[C@@H]2CCCN2C(=O)[C@H](CCc2ccc(C(F)(F)F)c(Cl)c2)NC(=O)CN(C)C(=O)[C@H](Cc2ccc(C)cc2)N(CCCOC)C(=O)CN(C)C(=O)CN(C)C1=O [PP0105] ([NMeL]I[Sar][Sar][X27][Sar][hPhe(3-Cl-4-CF3)]P[Ac5c][NMeGly(cPent)][NMeD]-Morpholide; lactam N-11) | C (A compound having a KD ratio of 0.1 or more and less than 3 is denoted as C) | B (a compound having 3 or more and less than 10 is denoted as B) | – | – | – | –
4.2 | CCO[C@@H]1C[C@H]2C(=O)NC3(CCC3)C(=O)N(C)[C@@H](C3CCCC3)C(=O)N(C)[C@H](C(=O)N3CCOCC3)CC(=O)N(C)[C@@H](CC3CCC3)C(=O)N[C@@H]([C@@H](C)CC)C(=O)N(C)CC(=O)N(C)[C@H]3CCCCN(C3=O)[C@@H](Cc3ccc(C(F)(F)F)cc3)C(=O)N(C)CC(=O)N[C@@H](CCc3cc(F)c(C(F)(F)F)c(F)c3)C(=O)N2C1 [PP0713] | – | – | B (a compound having 3 or more and less than 10 is denoted as B) | C (A compound having a KD ratio of 0.1 or more and less than 3 is denoted as C) | – | –
32.1 | CCO[C@@H]1C[C@H]2C(=O)NC3(CC(C)(C)C3)C(=O)N(C)[C@@H](C(CC)CC)C(=O)N(C)[C@H](C(=O)N3CCCC3)CC(=O)N(C)[C@H]3CCC/C=C/c4ccc(cc4)C[C@@H](C(=O)N(C)CC(=O)N[C@@H](CCc4ccc(Cl)c(Cl)c4)C(=O)N2C1)N1CC/C=C\C[C@@H](C1=O)N(C)C(=O)CN(C)C(=O)[C@H]([C@@H](C)CC)NC3=O [PP2581] | A (a compound having 10 or more and less than 20 is denoted as A) | AA (a compound having 20 or more is denoted as AA) | – | – | – | –
4.9 | CCCN1C(=O)CN(C)C(=O)CN(C)C(=O)[C@H]([C@@H](C)CC)NC(=O)[C@H](CC(C)C)N(C)C(=O)C[C@@H](C(=O)N2CCOCC2)N(C)C(=O)[C@H](C2CCCC2)N(C)C(=O)C2(CCCC2)NC(=O)[C@@H]2C[C@@H](O)CN2C(=O)[C@H](CCc2ccc(C(F)(F)F)c(Cl)c2)NC(=O)CN(C)C(=O)[C@@H]1Cc1ccc(C(F)(F)F)cc1 [PP0241] ([NMeL]I[Sar][Sar][NPrPhe(4-CF3)][Sar][hPhe(3-Cl-4-CF3)][Hyp][Ac5c][NMeGly(cPent)][NMeD]-Morpholide; lactam N-11) | C (A compound having a KD ratio of 0.1 or more and less than 3 is denoted as C) | B (a compound having 3 or more and less than 10 is denoted as B) | – | – | – | –
21 | CC[C@H](C)[C@@H]1NC(=O)[C@H](CC(C)C)N(C)C(=O)C[C@@H](C(=O)N2CCOCC2)N(C)C(=O)[C@H](C2CCCC2)N(C)C(=O)C2(CCCC2)NC(=O)[C@@H]2C[C@H](O)CN2C(=O)[C@H](CCc2cc(F)c(C(F)(F)F)c(F)c2)NC(=O)CN(C)C(=O)[C@H](Cc2ccc(C(F)(F)F)cc2)N2CCCC[C@@H](C2=O)N(C)C(=O)CN(C)C1=O [PP0556] | – | – | B (a compound having 3 or more and less than 10 is denoted as B) | C (A compound having a KD ratio of 0.1 or more and less than 3 is denoted as C) | – | –
20.6 | CCCN(C)C(=O)[C@@H]1CC(=O)N(C)[C@@H](COC)C(=O)N[C@@H]([C@@H](C)CC)C(=O)N(C)CC(=O)N(C)[C@H]2C/C=C\CCN(C2=O)[C@@H](Cc2ccc(C(F)(F)F)cc2)C(=O)N(C)CC(=O)N[C@@H](CCc2cc(F)c(C(F)(F)F)c(F)c2)C(=O)N2CCC[C@H]2C(=O)NC2(CC(C)(C)C2)C(=O)N(C)[C@@H](C2CCCC2)C(=O)N1C [PP1729] | – | – | – | – | A (a compound having 10 or more and less than 20 is denoted as A) | AA (a compound having 20 or more is denoted as AA)
37.2 | CCO[C@@H]1C[C@H]2C(=O)NC3(CCCC3)C(=O)N(C)[C@@H](C3CCCC3)C(=O)N(C)[C@H](C(=O)N(C)C)CC(=O)N(C)[C@@H](CC(C)C)C(=O)N[C@@H]([C@@H](C)CC)C(=O)N(C)CC(=O)N(C)[C@H]3CCCCCN(C3=O)[C@@H](Cc3ccc(C(F)(F)F)cc3)C(=O)N(C)CC(=O)N[C@@H](CCc3cc(F)c(C(F)(F)F)c(F)c3)C(=O)N2C1 [PP0468] | – | – | B (a compound having 3 or more and less than 10 is denoted as B) | B (a compound having 3 or more and less than 10 is denoted as B) | – | –
